In patent publication US20230114728A1 (Venatorx Pharmaceuticals, Inc., priority 2019, published 2023):
In brackets after ≈: the same amount, converted by molar mass.

Key:
Test in all cases: Broth microdilution MIC in CAMHB
Type in all cases: cell-based
[1] = tested on: A. baumannii ATCC 19606; settings: Acinetobacter baumannii, ATCC19606; MHB; read-out: Minimum Inhibitory Concentration, A. baumannii ATCC 19606
Procedure, shortened: (§1)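 Colonies from cation-adjusted Mueller Hinton agar are grown in broth (3-5 h, 37° C), adjusted by OD600, and added at 2-8×10^5 CFU/mL to 2-fold compound dilutions. After 16-20 h at 37° C, the lowest concentration without growth is taken as MIC.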

[2] = tested on: E. coli 901C; settings: Escherichia coli; E. coli 901C (hyper-permeable); MHB; read-out: Minimum Inhibitory Concentration, E. coli 901C
Procedure, shortened: as §1

[3] = tested on: E. coli AG100A; settings: Escherichia coli, read-out: Minimum Inhibitory Concentration, E. coli AG100A
Procedure, shortened: as §1

[4] = tested on: E. coli AG100; settings: Escherichia coli; E. coli AG100 (wild-type parent); MHB; read-out: Minimum Inhibitory Concentration, E. coli AG100
Procedure, shortened: as §1

[5] = tested on: E. coli ATCC 25922; settings: Escherichia coli, ATCC25922; E. coli ATCC 25922; MHB; read-out: Minimum Inhibitory Concentration, E. coli 25922
Procedure, shortened: as §1

[6] = tested on: E. coli D22; settings: Escherichia coli; E. coli D22 (hyper-permeable); MHB; read-out: Minimum Inhibitory Concentration, E. coli D22
Procedure, shortened: as §1

[7] = tested on: K. pneumoniae 848844 producing SHV-11 and KPC-2; settings: Klebsiella pneumoniae, read-out: Minimum Inhibitory Concentration, K. pneumoniae 848844
Procedure, shortened: as §1

[8] = tested on: K. pneumoniae SI-117 producing VIM-1; settings: Klebsiella pneumoniae, read-out: Minimum Inhibitory Concentration, K. pneumoniae SI-117
Procedure, shortened: as §1

[9] = tested on: K. pneumoniae UMM producing SHV-5 and KPC-2; settings: Klebsiella pneumoniae, read-out: Minimum Inhibitory Concentration, K. pneumoniae UMM
Procedure, shortened: as §1

[10] = tested on: P. aeruginosa (ΔmexAB-oprM); settings: Pseudomonas aeruginosa, read-out: Minimum Inhibitory Concentration, P. aeruginosa ΔmexAB-OprM
Procedure, shortened: as §1

[11] = tested on: P. aeruginosa ATCC 27853; settings: Pseudomonas aeruginosa, ATCC27853; MHB; read-out: Minimum Inhibitory Concentration, P. aeruginosa ATCC 27853
Procedure, shortened: as §1

[12] = tested on: P. aeruginosa ATCC 35151; settings: Pseudomonas aeruginosa, ATCC35151; MHB; hyper-permeable strain; read-out: Minimum Inhibitory Concentration, P. aeruginosa ATCC 35151
Procedure, shortened: as §1

Structure (SMILES) | MIC [1] [µg/mL] | MIC [2] [µg/mL] | MIC [3] [µg/mL] | MIC [4] [µg/mL] | MIC [5] [µg/mL] | MIC [6] [µg/mL] | MIC [7] [µg/mL] | MIC [8] [µg/mL] | MIC [9] [µg/mL] | MIC [10] [µg/mL] | MIC [11] [µg/mL] | MIC [12] [µg/mL]
NCCN1CCN(C(=O)N[C@H](C(=O)N[C@H]2Cc3cccc(C(=O)O)c3OB2O)c2cc(Cl)c(O)c(Cl)c2)C(=O)C1=O (single isomer, unassigned) [Example 165] | > 128 | 2 to 4 (≈ 3.29 to 6.58 µM) | 8 to 16 (≈ 13.2 to 26.3 µM) | > 128 | > 128 | 32 to 64 (≈ 52.6 to 105 µM) | > 128 | > 128 | > 128 | 8 to 16 (≈ 13.2 to 26.3 µM) | > 128 | 0.5 to 1 (≈ 0.822 to 1.64 µM)
NCCN1CCN(C(=O)N[C@@H](C(=O)N[C@H]2Cc3cccc(C(=O)O)c3OB2O)c2cc(Cl)c(O)c(Cl)c2)C(=O)C1=O (single isomer, unassigned) [Example 166] | > 128 | < 0.25 | 0.5 to 1 (≈ 0.822 to 1.64 µM) | 8 to 16 (≈ 13.2 to 26.3 µM) | 8 to 16 (≈ 13.2 to 26.3 µM) | 2 to 4 (≈ 3.29 to 6.58 µM) | 32 to 64 (≈ 52.6 to 105 µM) | 32 to 64 (≈ 52.6 to 105 µM) | 32 to 64 (≈ 52.6 to 105 µM) | 2 to 4 (≈ 3.29 to 6.58 µM) | 8 to 16 (≈ 13.2 to 26.3 µM) | < 0.25
NCCN1CCN(C(=O)N[C@H](C(=O)N[C@H]2Cc3cccc(C(=O)O)c3OB2O)c2cc(F)c(O)c(F)c2F)C(=O)C1=O (single isomer, unassigned) [Example 167] | > 128 | 2 to 4 (≈ 3.37 to 6.74 µM) | 8 to 16 (≈ 13.5 to 27 µM) | 32 to 64 (≈ 53.9 to 108 µM) | 32 to 64 (≈ 53.9 to 108 µM) | 8 to 16 (≈ 13.5 to 27 µM) | > 128 | > 128 | 32 to 64 (≈ 53.9 to 108 µM) | 8 to 16 (≈ 13.5 to 27 µM) | > 128 | 0.5 to 1 (≈ 0.843 to 1.69 µM)
NCCN1CCN(C(=O)N[C@@H](C(=O)N[C@H]2Cc3cccc(C(=O)O)c3OB2O)c2cc(F)c(O)c(F)c2F)C(=O)C1=O (single isomer, unassigned) [Example 168] | > 128 | < 0.25 | 0.5 to 1 (≈ 0.843 to 1.69 µM) | 8 to 16 (≈ 13.5 to 27 µM) | 8 to 16 (≈ 13.5 to 27 µM) | 0.5 to 1 (≈ 0.843 to 1.69 µM) | 32 to 64 (≈ 53.9 to 108 µM) | 32 to 64 (≈ 53.9 to 108 µM) | 8 to 16 (≈ 13.5 to 27 µM) | 2 to 4 (≈ 3.37 to 6.74 µM) | 32 to 64 (≈ 53.9 to 108 µM) | < 0.25
NCCN1CCN(C(=O)N[C@H](C(=O)N[C@H]2Cc3cccc(C(=O)O)c3OB2O)c2ccc(O)c(F)c2F)C(=O)C1=O (single isomer, unassigned) [Example 169] | > 128 | 2 to 4 (≈ 3.48 to 6.95 µM) | 32 to 64 (≈ 55.6 to 111 µM) | 32 to 64 (≈ 55.6 to 111 µM) | 8 to 16 (≈ 13.9 to 27.8 µM) | 32 to 64 (≈ 55.6 to 111 µM) | > 128 | > 128 | > 128 | 32 to 64 (≈ 55.6 to 111 µM) | > 128 | 2 to 4 (≈ 3.48 to 6.95 µM)
NCCN1CCN(C(=O)N[C@@H](C(=O)N[C@H]2Cc3cccc(C(=O)O)c3OB2O)c2ccc(O)c(F)c2F)C(=O)C1=O (single isomer, unassigned) [Example 170] | > 128 | 0.5 to 1 (≈ 0.869 to 1.74 µM) | 2 to 4 (≈ 3.48 to 6.95 µM) | 8 to 16 (≈ 13.9 to 27.8 µM) | 8 to 16 (≈ 13.9 to 27.8 µM) | 2 to 4 (≈ 3.48 to 6.95 µM) | 32 to 64 (≈ 55.6 to 111 µM) | 32 to 64 (≈ 55.6 to 111 µM) | 8 to 16 (≈ 13.9 to 27.8 µM) | 2 to 4 (≈ 3.48 to 6.95 µM) | 32 to 64 (≈ 55.6 to 111 µM) | < 0.25
NS(=O)(=O)c1cccc(C(NC(=O)N2CCN(CCF)C(=O)C2=O)C(=O)N[C@H]2Cc3cccc(C(=O)O)c3OB2O)c1 (stereo partly drawn) [Example 100, (3R)-3-(2-(4-(2-fluoroethyl)-2,3-dioxopiperazine-1-carboxamido)-2-(3-sulfamoylphenyl)acetamido)-2-hydroxy-3,4-dihydro-2H-benzo[e][1,2]oxaborinine-8-carboxylic acid] | > 128 | < 0.25 | 2 to 4 (≈ 3.3 to 6.61 µM) | 32 to 64 (≈ 52.9 to 106 µM) | 32 to 64 (≈ 52.9 to 106 µM) | 2 to 4 (≈ 3.3 to 6.61 µM) | 32 to 64 (≈ 52.9 to 106 µM) | 32 to 64 (≈ 52.9 to 106 µM) | 32 to 64 (≈ 52.9 to 106 µM) | 8 to 16 (≈ 13.2 to 26.4 µM) | > 128 | 2 to 4 (≈ 3.3 to 6.61 µM)
CCN1CCN(C(=O)NC(C(=O)N[C@H]2Cc3cccc(C(=O)O)c3OB2O)c2cc(Cl)c(O)cc2F)C(=O)C1=O (stereo partly drawn) [Example 101, (3R)-3-(2-(5-chloro-2-fluoro-4-hydroxyphenyl)-2-(4-ethyl-2,3-dioxopiperazine-1-carboxamido)acetamido)-2-hydroxy-3,4-dihydro-2H-benzo[e][1,2]oxaborinine-8-carboxylic acid] | > 128 | < 0.25 | 2 to 4 (≈ 3.47 to 6.94 µM) | 32 to 64 (≈ 55.5 to 111 µM) | 32 to 64 (≈ 55.5 to 111 µM) | 2 to 4 (≈ 3.47 to 6.94 µM) | > 128 | > 128 | 32 to 64 (≈ 55.5 to 111 µM) | 8 to 16 (≈ 13.9 to 27.7 µM) | > 128 | 0.5 to 1 (≈ 0.867 to 1.73 µM)
CCN1CCN(C(=O)NC(C(=O)N[C@H]2Cc3cccc(C(=O)O)c3OB2O)c2cc(F)c(O)cc2Cl)C(=O)C1=O (stereo partly drawn) [Example 103, (3R)-3-(2-(2-chloro-5-fluoro-4-hydroxyphenyl)-2-(4-ethyl-2,3-dioxopiperazine-1-carboxamido)acetamido)-2-hydroxy-3,4-dihydro-2H-benzo[e][1,2]oxaborinine-8-carboxylic acid] | > 128 | < 0.25 | 2 to 4 (≈ 3.47 to 6.94 µM) | 32 to 64 (≈ 55.5 to 111 µM) | 32 to 64 (≈ 55.5 to 111 µM) | 2 to 4 (≈ 3.47 to 6.94 µM) | > 128 | > 128 | 32 to 64 (≈ 55.5 to 111 µM) | 8 to 16 (≈ 13.9 to 27.7 µM) | > 128 | 2 to 4 (≈ 3.47 to 6.94 µM)
CCN1CCN(C(=O)NC(C(=O)N[C@H]2Cc3cccc(C(=O)O)c3OB2O)c2cc(F)c(O)cc2F)C(=O)C1=O (stereo partly drawn) [Example 104, (3R)-3-(2-(2,5-difluoro-4-hydroxyphenyl)-2-(4-ethyl-2,3-dioxopiperazine-1-carboxamido)acetamido)-2-hydroxy-3,4-dihydro-2H-benzo[e][1,2]oxaborinine-8-carboxylic acid] | > 128 | < 0.25 | 2 to 4 (≈ 3.57 to 7.14 µM) | 32 to 64 (≈ 57.1 to 114 µM) | 32 to 64 (≈ 57.1 to 114 µM) | 2 to 4 (≈ 3.57 to 7.14 µM) | > 128 | 32 to 64 (≈ 57.1 to 114 µM) | 32 to 64 (≈ 57.1 to 114 µM) | 8 to 16 (≈ 14.3 to 28.6 µM) | > 128 | 2 to 4 (≈ 3.57 to 7.14 µM)
CCN1CCN(C(=O)NC(C(=O)N[C@H]2Cc3cccc(C(=O)O)c3OB2O)c2c(F)c(O)cc(O)c2F)C(=O)C1=O (stereo partly drawn) [Example 106, (3R)-3-(2-(2,6-difluoro-3,5-dihydroxyphenyl)-2-(4-ethyl-2,3-dioxopiperazine-1-carboxamido)acetamido)-2-hydroxy-3,4-dihydro-2H-benzo[e][1,2]oxaborinine-8-carboxylic acid] | > 128 | 2 to 4 (≈ 3.47 to 6.94 µM) | 32 to 64 (≈ 55.5 to 111 µM) | > 128 | > 128 | 8 to 16 (≈ 13.9 to 27.8 µM) | > 128 | > 128 | > 128 | 8 to 16 (≈ 13.9 to 27.8 µM) | > 128 | 2 to 4 (≈ 3.47 to 6.94 µM)
